Measured values as given in paper doi:10.1101/2023.07.01.547314v1 (biorxiv, 2023).
Where a chain is given by its changes, count along the chain named.

Key:
A2BR [1] = molecular target: T1, A2BR (Homo sapiens, UniProt P29275, N273Y); experiment: GloSensor cAMP assay, HEK293; format: cell-based
T1 sequence (P29275 1-332 N273Y): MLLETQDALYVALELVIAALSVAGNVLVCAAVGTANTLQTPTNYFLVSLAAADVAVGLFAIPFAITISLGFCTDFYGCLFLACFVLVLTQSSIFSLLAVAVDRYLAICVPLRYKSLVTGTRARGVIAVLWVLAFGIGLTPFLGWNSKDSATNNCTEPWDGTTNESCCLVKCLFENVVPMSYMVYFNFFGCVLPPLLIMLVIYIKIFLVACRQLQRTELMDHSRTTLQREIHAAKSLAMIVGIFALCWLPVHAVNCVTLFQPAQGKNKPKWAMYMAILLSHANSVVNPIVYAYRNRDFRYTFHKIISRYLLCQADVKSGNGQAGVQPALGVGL

A2AR [2] = molecular target: A2AR (Homo sapiens, UniProt P29274, Y9F); experiment: cell-based
A2AR (Homo sapiens, UniProt P29274, Y9F), sequence (P29274 whole entry Y9F): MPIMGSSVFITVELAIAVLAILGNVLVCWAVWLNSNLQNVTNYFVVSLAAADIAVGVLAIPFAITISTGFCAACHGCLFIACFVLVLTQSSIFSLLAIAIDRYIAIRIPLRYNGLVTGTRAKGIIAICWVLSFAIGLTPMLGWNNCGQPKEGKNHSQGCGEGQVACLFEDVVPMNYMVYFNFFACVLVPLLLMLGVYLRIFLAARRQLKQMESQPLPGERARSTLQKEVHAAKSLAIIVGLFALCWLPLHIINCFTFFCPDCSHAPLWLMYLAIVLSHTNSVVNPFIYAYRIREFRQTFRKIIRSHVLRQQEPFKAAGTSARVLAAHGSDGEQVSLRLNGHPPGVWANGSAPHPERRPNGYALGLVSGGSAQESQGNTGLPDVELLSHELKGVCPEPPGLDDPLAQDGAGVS

A2AR [3] = molecular target: A2AR (Homo sapiens, UniProt P29274); experiment: cell-based
A2AR (Homo sapiens, UniProt P29274), sequence (P29274 whole entry): as the sequence (P29274 whole entry Y9F) above, with F9Y counted along it

A2AR [4] = molecular target: A2AR (Homo sapiens, UniProt P29274, Y271N); experiment: cell-based
A2AR (Homo sapiens, UniProt P29274, Y271N), sequence (P29274 whole entry Y271N): as the sequence (P29274 whole entry Y9F) above, with F9Y, Y271N counted along it

A2BR [5] = molecular target: T2, A2BR (Homo sapiens, UniProt P29275); experiment: GloSensor cAMP assay, HEK293; format: cell-based
T2 sequence (P29275 1-332): T1 sequence (P29275 1-332 N273Y) with Y273N

A2BR [6] = molecular target: T3, A2BR (Homo sapiens, UniProt P29275, Y10F); experiment: GloSensor cAMP assay, HEK293; format: cell-based
T3 sequence (P29275 1-332 Y10F): T1 sequence (P29275 1-332 N273Y) with Y10F, Y273N

IC50 (A2BR [1]) [nM]	IC50 (A2AR [2]) [nM]	IC50 (A2AR [3]) [nM]	IC50 (A2AR [4]) [nM]	IC50 (A2BR [5]) [nM]	IC50 (A2BR [6]) [nM]	Compound
7.46	1.78	3.21	65.6	8.18	1.29	Cc1c(C#N)cccc1-c1cc(-c2cn(Cc3cccc(C(C)(C)O)n3)nn2)nc(N)n1 [AB928, 3-[2-amino-6-[1-[[6-(2-hydroxypropan-2-yl)pyridin-2-yl]methyl]triazol-4-yl]pyrimidin-4-yl]-2-methylbenzonitrile]
1210	–	–	–	2630	441	Cc1c(C#N)cccc1-c1cc(-c2ccn(Cc3cccc(C(C)(C)O)n3)c(=O)c2)nc(N)n1 [2-118, 3-[2-amino-6-[1-[[6-(2-hydroxypropan-2-yl)pyridin-2-yl]methyl]-2-oxo-1,2-dihydropyridin-4-yl]pyrimidin-4-yl]-2-methylbenzonitrile]
